Experimental data published in the supplement of paper PMC10307832.

Legend:
Test in all cases: relative viability (nuclei count vs DMSO), 5 days (fraction); higher = more cells survive
[1] = compound: CC1=CC(=CC=C1)NC2=NC(=CS2)C3=CC=NC=C3 + CC(C)C[C@H](NC(=O)[C@H](Cc1ccccc1)NC(=O)c1cnccn1)B(O)O [Bortezomib] (partner 0.002 µM)
In short: (§1)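 Lung cancer cell lines in 1536-well plates got either a single drug or a fixed anchor-drug dose together with five library-drug doses (not always all listed) in √10 steps, by pin tool, on the day after seeding. Nuclei were counted after 5 days, and relative viability is the treated-to-vehicle ratio of nuclei counts. Values are medians of duplicate plates.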

[2] = compound: CC1=CC(=CC=C1)NC2=NC(=CS2)C3=CC=NC=C3 + C[C@@H](Oc1cc(-c2cnn(C3CCNCC3)c2)cnc1N)c1c(Cl)ccc(F)c1Cl [Crizotinib] (partner 1 µM)
In short: as §1

Masitinib + Bortezomib = compound: Cc1ccc(NC(=O)c2ccc(CN3CCN(C)CC3)cc2)cc1Nc1nc(-c2cccnc2)cs1 [Masitinib] + CC(C)C[C@H](NC(=O)[C@H](Cc1ccccc1)NC(=O)c1cnccn1)B(O)O [Bortezomib] (partner 0.002 µM)
In short: as §1

Masitinib + AZD7762 = compound: Cc1ccc(NC(=O)c2ccc(CN3CCN(C)CC3)cc2)cc1Nc1nc(-c2cccnc2)cs1 [Masitinib] + NC(=O)Nc1cc(-c2cccc(F)c2)sc1C(=O)N[C@H]1CCCNC1 [AZD7762] (partner 0.2 µM)
In short: as §1

Cell Line	relative viability ([1]; first compound 0.08 µM)	relative viability ([1]; first compound 0.253 µM)	relative viability ([1]; first compound 0.8 µM)	relative viability ([1]; first compound 2.53 µM)	relative viability ([1]; first compound 8 µM)	relative viability ([2]; first compound 0.08 µM)	relative viability ([2]; first compound 0.253 µM)	relative viability ([2]; first compound 0.8 µM)	relative viability ([2]; first compound 2.53 µM)	relative viability ([2]; first compound 8 µM)	relative viability (Masitinib + Bortezomib; first compound 0.01 µM)	relative viability (Masitinib + Bortezomib; first compound 0.03162 µM)	relative viability (Masitinib + Bortezomib; first compound 0.1 µM)	relative viability (Masitinib + Bortezomib; first compound 0.3162 µM)	relative viability (Masitinib + Bortezomib; first compound 1 µM)	relative viability (Masitinib + AZD7762; first compound 0.01 µM)	relative viability (Masitinib + AZD7762; first compound 0.03162 µM)	relative viability (Masitinib + AZD7762; first compound 0.1 µM)	relative viability (Masitinib + AZD7762; first compound 0.3162 µM)	relative viability (Masitinib + AZD7762; first compound 1 µM)
HCC-15	0.963	1.03	0.973	1.02	0.753	0.826	0.807	0.777	0.833	0.79	0.714	1.09	0.847	1.21	1.04	0.794	1.04	1.02	0.422	1.24
HCC-44	0.75	0.702	0.71	0.707	0.809	0.704	0.585	0.651	0.722	0.691	0.765	0.778	0.854	0.773	0.857	0.834	0.99	1.02	0.958	1.04
HCC-78	0.409	0.473	0.469	0.414	0.274	0.324	0.312	0.311	0.333	0.346	0.49	0.419	0.515	0.406	0.394	0.509	0.524	0.71	0.454	0.572
NCI-H1355	1.08	1.02	0.991	0.465	0.716	1.02	0.781	0.705	0.701	0.61	0.949	1.3	1.02	1.02	1.06	0.726	0.747	0.791	0.481	0.517
NCI-H838	0.658	0.742	0.934	0.861	0.651	0.817	0.661	0.749	0.819	0.682	0.793	0.83	0.965	0.758	0.69	0.818	0.883	0.913	0.845	0.892
NCI-H2126	1.06	1.04	1.16	0.989	0.91	0.975	1.01	1	0.983	0.846	1.05	1.17	1.1	1.03	1.11	0.884	1.07	0.97	0.973	1.11
BEN	0.816	0.618	0.546	0.697	0.794	1.11	0.948	0.879	0.779	0.76	1.15	0.662	0.874	0.666	0.831	0.849	0.64	0.882	0.607	0.77
LCLC-103H	0.995	1.12	1.05	1.1	0.635	0.918	0.924	0.902	1.02	0.888	0.821	1.23	1.02	0.948	0.994		0.885	0.566	0.831	0.791
EKVX	1.01	0.994	0.747	0.957	0.696	0.907	0.893	0.795	0.801	0.497		1.04	1.05	0.444	0.671	0.783	0.824	0.71		0.637
ABC-1	0.316	0.265	0.328	0.315	0.32	0.851	0.893	1.03	0.934	1.19	0.324	0.296	0.287	0.306	0.256	0.711	0.901	0.743	0.493	0.801
NCI-H1651	0.939	0.923	0.933	0.822	0.987	0.854	0.869	0.897	0.851	0.897	0.891	0.941	0.927	0.983	0.944	0.49	0.523	0.485	0.475	0.471
NCI-H2087	0.708	0.825	0.844	0.666	0.3	0.895	1.04	0.847	0.67	0.838	0.544	0.741	0.756	0.958	0.779	1.22	1.35	1.2	1.5	1.3
LC-2-ad	0.884	0.94	1.13	0.873	0.875	0.45	0.419	0.394	0.397	0.396	0.816	0.992	0.926	0.996	0.93	0.687	0.795	0.707	0.71	0.818
NCI-H1437	0.473	0.523	0.566	0.437	0.355	0.938	1.03	0.91	1.06	0.926	0.468	0.637	0.585	0.577	0.438	1.09	1.12	1.22	1.07	1.06
H3255	0.664	0.624	0.886	0.586	0.604	0.721	0.926	0.821	0.795	0.853		0.858	0.601	0.459	0.755	0.581	0.948	0.764	0.705	0.885
NCI-H1755	0.937	0.886	0.832	0.819	0.572	0.86	0.815	0.803	0.729	0.522		0.966	0.832	0.907	0.816	0.404	0.452	0.468	0.45	0.479
HOP-62	0.673	0.784	1.16	0.588	0.496	0.935	0.788	0.944	0.503	0.93	0.573	0.598	0.845	0.799	0.769	0.458	0.631	0.837	0.679	0.655

Cell Line	relative viability ([1]; first compound 0.08 µM)	relative viability ([1]; first compound 0.253 µM)	relative viability ([1]; first compound 0.8 µM)	relative viability ([1]; first compound 2.53 µM)	relative viability ([1]; first compound 8 µM)	relative viability ([2]; first compound 0.08 µM)	relative viability ([2]; first compound 0.253 µM)	relative viability ([2]; first compound 0.8 µM)	relative viability ([2]; first compound 2.53 µM)	relative viability ([2]; first compound 8 µM)	relative viability (Masitinib + Bortezomib; first compound 0.01 µM)	relative viability (Masitinib + Bortezomib; first compound 0.03162 µM)	relative viability (Masitinib + Bortezomib; first compound 0.1 µM)	relative viability (Masitinib + Bortezomib; first compound 0.3162 µM)	relative viability (Masitinib + Bortezomib; first compound 1 µM)	relative viability (Masitinib + AZD7762; first compound 0.01 µM)	relative viability (Masitinib + AZD7762; first compound 0.03162 µM)	relative viability (Masitinib + AZD7762; first compound 0.1 µM)	relative viability (Masitinib + AZD7762; first compound 0.3162 µM)	relative viability (Masitinib + AZD7762; first compound 1 µM)
LOU-NH91	0.446	0.457	0.447	0.461	0.398	0.706	0.759	0.717	0.728	0.693	0.481	0.468	0.506	0.492	0.49	0.748	0.628	0.799	0.642	0.548
ChaGo-K-1	0.866	0.775	1.06	0.579	0.812	1.08	1.07	1.14	1.07	1.15	1.04	1.05	1.35	1.12	0.962	0.928	0.916	0.946	0.823	0.806
NCI-H23	1.17	1.08	1.29	0.866	0.739	0.417	0.469	0.474	0.531	0.526	1.06	1.05	1.14	1.03	1.11	0.21	0.273	0.277	0.237	0.198
PC-3 [JPC-3]	0.743	0.821	0.577	0.636	0.361	0.875	0.913	0.852	0.904	0.799	0.833	0.936	0.784	0.878	0.841	0.785	0.873	0.837	0.645	0.642
NCI-H1703	0.241	0.317	0.334	0.336	0.331	0.73	1.01	0.683	0.878	0.799	0.29	0.246	0.229	0.269	0.174	0.113	0.158	0.102	0.121	0.106
NCI-H1666	0.503	0.553	0.41	0.388	0.409	0.722	0.567	0.526	0.567	0.386	0.71	0.726	0.854	0.555	0.612	0.763	0.743	0.806	0.527	0.816
NCI-H1792	0.954	0.75	0.784	0.81	0.898	0.99	0.767	0.886	0.815	0.947	0.759	0.387	0.945	0.994	1.01	0.733	0.502	0.611	0.39	0.547
NCI-H727	0.547	0.774	0.834	0.549	0.446	0.621	0.737	0.922	0.759	0.575	0.846	0.847	1.02	1.04	0.744	0.592	0.626	0.566	0.495	0.606
HARA	1.09	1.16	1.1	1.03	0.936	0.804	1	0.994	0.998	0.986	1.05	1.09	1.18	1.17	1.04	0.444	0.267	0.216		0.143
NCI-H647	0.826	0.92	0.965	0.836	0.621	1.04	0.909	0.953	1.02	0.86	1.03	0.768	1.1	1.05	1.09	0.587	0.477	0.535	0.502	0.469
NCI-H2347	0.748	0.74	0.847	0.804	0.57	0.544	0.688	0.468	0.789	0.777	0.829	1.02	0.938	0.899	0.903	0.853	0.733	0.675	0.647	0.73
LCLC-97TM1	0.715	0.478	0.476	0.365	0.463			0.744	0.366	0.42	0.61		0.749	0.741	0.83	0.235	0.288	0.229	0.191	0.229
EPLC-272H	1.03		0.73		0.352	0.854		0.877		0.885	0.97	0.85	0.917	1.16	0.839	0.245	0.206	0.211	0.258	0.161
NCI-H1975	0.361	0.352	0.374	0.267	0.171	0.819	0.737	0.862	0.758	0.722	0.378	0.319	0.388	0.319	0.373	0.707	0.665	0.884	0.434	0.546
NCI-H3122	1.03	1.07	1.06	0.996	1.03	0.266	0.31	0.334	0.332	0.47	1.09	0.997	1.1	1.03	0.984	0.797	0.994	0.993	0.921	0.984
NCI-H441	0.423	0.361	0.427	0.53	0.136	0.751	0.831	0.791	0.69	0.663	0.777	0.451	0.658	0.673	0.448	1.23	1.2	1.28	1.35	1.28
